According to patent publication US12569468B2, “Use of palovarotene in treatment against HBV virus” (YANG SHENG TANG COMPANY, LTD., priority 2020, dated 2026):

Tested on: HBV
Experiment: Therapeutic effect on HepG2-hNTCP 2B1 infected by HBV (drug from day 6 after infection)
Type: cell-based, hepatitis B virus
Details: drug treatment from 6 days after HBV infection to day 12, Palovarotene at high concentrations (p<0.05), ETV 1 μM, vs blank group
Protocol: This experiment was carried out in a 24-well culture plate. […] About 1.5×10^5 HepG2-hNTCP 2B1 cells were plated in each well, and 500 μL of medium B was added to each well. After the cells adhered, medium A was used for replacement to perform the induction with Doxycycline during the whole experiment.
4 Days after the induction with Doxycycline, HBV infection was performed, and the amount of HBV in each well was 100 MOI. Before infection, HBV was diluted in medium C to obtain HBV solution, and the infection volume was 250 μL per well. During infection, the cell supernatant was first removed by suction, the HBV solution was added to the cells, and the cells were incubated for 24 hours, then the supernatant was collected as the sample of Day 0. Then the cells were washed three times with PBS, and fresh medium C was used for replacement. After that, the supernatant was collected every two days for detection, fresh medium C was used for replacement. On the 6th day, fresh drug-containing medium A was used for replacement to start drug treatment, then the supernatant was collected every two days for detection, and fresh drug-containing medium A was used for replacement, until the 12th day, all the supernatant and cells were collected for relevant detection. The detection items included HBsAg, HBeAg, HBV DNA, HBV cccDNA, and for the detection method, please refer to Example 1.

C=C1[C@H](CO)[C@@H](O)C[C@@H]1n1cnc2c(=O)[nH]c(N)nc21 [ETV, Entecavir]
no significant difference: HBeAg | level of HBV DNA | level of HBV cccDNA
